Literature values in patent US9782413B2, “Composition for treatment of essential thrombocythemia” (AOP ORPHAN PHARMACEUTICALS AG, priority 2010, dated 2017).

Legend:
[1] = test system: phosphodiesterase (PDE) 3
[2] = after anagrelide administration

Row | SMILES | platelet reduction in vivo (platelets) | phosphodiesterase (PDE) 3 inhibitory activity [1] | delay of peak plasma level compared to the parent drug [2]
1 | NC1=Nc2ccc(Cl)c(Cl)c2CN1 [RL 603, 2-amino-5,6-dichloro-3,4-dihydroquinazolone] | lacks these activities | lacks these activities | 
2 | O=C1NC2=Nc3ccc(Cl)c(Cl)c3CN2C1O (stereo not shown) [3-hydroxyanagrelide] |  | considerably more potent than anagrelide | about 45 mm
